Measurements taken from patent US20220288057A1, “CONJOINT THERAPY FOR TREATING SEIZURE DISORDERS” (XENON PHARMACEUTICALS INC., priority 2021, published 2022).
Read-outs that look alike come from different tables or passages of the source.

What was measured:
[1] = system: MES assay; details: Barton et al. 2001; cited from earlier work
[2] = Plasma and brain concentrations in 6 Hz studies (LC-MS/MS); assay type: in vivo, mouse; details: intraperitoneal
Procedure: Sample Collection and Preparation: Mice were anesthetized by isoflurane inhalation (TECH-018) until they reached a surgical plane of anesthesia. Then a syringe (1 mL syringe with a 22 gauge needle) was inserted under the sternum into the heart (TECH-031). Approximately 0.5 mL of blood was collected, deposited into a K2EDTA tube, and stored on ice. Animals were then euthanized by cervical dislocation (TECH-018). Brains were removed, placed into a pre-weighed vial, and snap frozen on dry ice. At the end of the sample collection, blood was centrifuged at 4000 rpm for 10 minutes at 4° C., and the plasma pipetted into a labeled tube. All samples were stored in a −80° C. freezer until bioanalysis (8 days after sample collection for Studies 3A and 3B; 20 days after sample collection for Study 3C).
Plasma and Tissue Sample Analysis: Bead mill polypropylene tubes containing weighed brain tissues were thawed at room temperature and 3 mL of homogenization solvent (water:acetonitrile (1:1, v:v)) was added. The tubes were placed in the Bead Mill Homogenizer (Bead Ruptor Elite Model, Omni International) and shaken at a velocity of 3.70 m/s for a single cycle lasting 30 seconds. The homogenized tube was centrifuged at 4000 rpm for 20 minutes, the supernatant was transferred to a 1.5 mL Eppendorf tube, and stored frozen at −80° C. until analysis. All samples including plasma and brain homogenate extracts (including calibration and quality control (QC) samples prepared in K2EDTA rat plasma), were extracted by protein precipitation. […] The samples in the 1.5 mL tubes were vortex mixed and then centrifuged for 20 minutes at 13,000 rpm. Fifty microliters of the supernatant was mixed with 150 μL of water/acetonitrile (1:1) in a 96 well plate which was centrifuged post mixing for 20 minutes at 4000 rpm, and was then ready for analysis by liquid chromatography tandem mass spectrometry (LC-MS/MS).
Samples were analyzed by a research-grade LC-MS/MS method as follows: […]

[3] = system: tonic hindlimb seizure following corneal stimulation in CF-1 mice; experiment: Mouse maximal electroshock (MES) assay, 60 Hz 50 mA corneal stimulation; assay type: in vivo
Procedure: The interaction of Compound A with other ASMs was evaluated after oral dosing in the mouse maximal electroshock (MES) assay to determine whether some combinations were favorable or unfavorable. Efficacy was quantified by calculating the fraction of animals with a tonic hindlimb seizure following corneal stimulation. Compound Preparation: Compound A was initially solubilized in DMSO. This solution was then added into a 0.5% methyl cellulose solution to create a more even and less aggregated compound suspension. Serial dilutions were prepared from the tube with the highest concentration of Compound A and the compound suspensions were further vortexed prior to animal dosing. The final concentration of DMSO was 5%, an amount with no apparent toxicity or neuroprotection in the MES assay. […] Animals: Adult male CF-1 albino mice (25-35 g) purchased from Harlan-Envigo were used. The mice were housed four per cage and had access to filtered water and chow ad libidum, throughout the experiment. MES Assay: Compounds were administered orally by gavage before testing unless indicated otherwise. During MES testing, a 60-Hz alternating current (50 mA) was delivered for 0.2 seconds through corneal electrodes to the mice. A drop of 0.5% Alcaine solution was placed on the eye prior to current delivery. The electrodes were subsequently placed gently onto the eyes of the animal and the electrical shock was initiated by triggering through a foot-pedal activator. The animals were restrained by hand and gently released as the shock was delivered and the seizure commenced. Animals were monitored for hind limb tonic extension as the end point for this test. Statistical analysis: All statistics were calculated using Prism version 7 software (Graphpad Software). The method used for each experiment is indicated in the results section. Concentration-response curves were calculated as best fits to the equation […] where X was the log of plasma concentration. Unless indicated otherwise, bottom was constrained to be 0. Top was constrained to be the value determined experimentally by vehicle control measurements. Compound A Dose Response: […]

[4] = system: 6 Hz psychomotor seizures in CF-1 mice; experiment: Mouse 6 Hz psychomotor seizure assay (34 milliampere, 3 s); assay type: in vivo; details: for Fraction Seizing: Levetiracetam 300 mg/kg IP 1 h alone
Procedure: It was evaluated whether the combination of both compounds is favorable or unfavorable for efficacy by dosing Compound A and Levetiracetam alone and in combination, each at a dose that produces sub-maximal efficacy on its own. […] Plasma and brain samples were analyzed to gain an understanding of how the combination of Compound A and Levetiracetam may affect pharmacokinetics and pharmacodynamics. […] 6 Hz Psychomotor Seizure Assay: […] The animal was then securely restrained and a pair of electrodes was applied to the eyes (Electro Convulsive Therapy Unit 57800, Ugo Basile). […] Data Processing and Analysis: Statistical data analysis was performed using GraphPad Prism (version 8.2.1). Dose-response data was analyzed using a Kruskal-Wallis test, followed by Dunn's multiple comparisons. […] Dose- and concentration-response curves were generated using the Hill Langmuir equation: […]

SMILES: CC[C@@H](C(N)=O)N1CCCC1=O [Levetiracetam, reference compound]
- ED50 [1]: > 500 mg/kg
- concentration at 1 h ([2]; CF-1, mouse, brain, 300 mg/kg, Study 3B, Levetiracetam 300 mg/kg IP 1 h alone, read-out: Brain): 861 ± 120 µM
- concentration at 1 h ([2]; CF-1, mouse, brain, Study 3C, analyte Levetiracetam, 300 mg/kg IP + Compound A 4 mg/kg PO, read-out: Brain): 1100 ± 265 µM
- concentration at 1 h ([2]; CF-1, mouse, plasma, 300 mg/kg, Study 3B, Levetiracetam 300 mg/kg IP 1 h alone, read-out: Plasma): 1500 ± 320 µM
- concentration at 1 h ([2]; mouse, brain, 300 mg/kg, Studies 3B+3C combined, Levetiracetam 300 mg/kg IP 1 h alone, read-out: Brain): 996 µM
- concentration at 1 h ([2]; mouse, brain, 300 mg/kg, Study 3B, Levetiracetam 300 mg/kg IP 1 h alone, read-out: Brain): 861 ± 120 µM
- concentration at 1 h ([2]; mouse, brain, Studies 3B+3C combined, analyte Levetiracetam, 300 mg/kg IP + Compound A 4 mg/kg PO, read-out: Brain): 1050 µM
- concentration at 1 h ([2]; mouse, brain, Study 3B, analyte Levetiracetam, 300 mg/kg IP + Compound A 4 mg/kg PO, read-out: Brain): 1010 µM
- concentration at 1 h ([2]; mouse, brain, Study 3C, analyte Levetiracetam, 300 mg/kg IP + Compound A 4 mg/kg PO, read-out: Brain): 1100 µM
- concentration at 1 h ([2]; mouse, plasma, 300 mg/kg, Studies 3B+3C combined, Levetiracetam 300 mg/kg IP 1 h alone, read-out: Plasma): 1640 µM
- concentration at 1 h ([2]; mouse, plasma, 300 mg/kg, Study 3B, Levetiracetam 300 mg/kg IP 1 h alone, read-out: Plasma): 1500 ± 320 µM
- concentration at 1 h ([2]; mouse, plasma, Studies 3B+3C combined, analyte Levetiracetam, 300 mg/kg IP + Compound A 4 mg/kg PO, read-out: Plasma): 1730 µM
- concentration at 1 h ([2]; mouse, plasma, Study 3B, analyte Levetiracetam, 300 mg/kg IP + Compound A 4 mg/kg PO, read-out: Plasma): 1350 µM
- concentration at 1 h ([2]; mouse, plasma, Study 3C, analyte Levetiracetam, 300 mg/kg IP + Compound A 4 mg/kg PO, read-out: Plasma): 2160 µM
- fraction of mice without tonic seizures ([3]; Levetiracetam 120 mg/kg IP 2 h): 0/6
- fraction of mice without tonic seizures ([3]; Levetiracetam 150 mg/kg IP 2 h): 2/8
- average efficacy in previous experiments ([4]; Levetiracetam 300 mg/kg IP 1 h, 34 milliampere 6 Hz): 35%
- Fraction Seizing ([4]; Studies 3B+3C combined): 14/16
- Fraction Seizing ([4]; Study 3B): 8/8
- Fraction Seizing ([4]; Study 3C): 6/8
- animals protected from seizing ([4]; Study 3C, Levetiracetam 300 mg/kg IP alone): 2/8

SMILES: O=C1NC(=O)C(c2ccccc2)(c2ccccc2)N1 [Phenytoin, reference compound]
- maximum % seizures of fitted curve, reflecting efficacy of Phenytoin alone ([3]; Phenytoin 2 mg/kg): 75%
- fraction of animals without tonic seizures ([3]; Phenytoin 2 mg/kg IP 2 h alone): 6/24

SMILES: CCCC(CCC)C(=O)O [Valproic Acid, reference compound]
- IC50 ([3]; Mus musculus, ip, read-out: IC50 for Valproic Acid (plasma level, inhibition of tonic seizures)): 1440 µM
- number of mice without tonic seizures/total ([3]; Vehicle PO + Valproic Acid 56 mg/kg IP 0.5 h): 1/7
- number of mice without tonic seizures/total ([3]; Vehicle PO + Valproic Acid 100 mg/kg IP 0.5 h): 5/15
- number of mice without tonic seizures/total ([3]; Vehicle+Valproic Acid at 56 mg/kg as printed, comparator of the 30 mg/kg combination): 0/8
- decrease of IC50 for Valproic Acid ([3]; combined with 1 mg/kg Compound A vs alone): 2.37 fold
